Peptide text beside a SMILES is read from it. * marks the point of attachment. Cbz = O=C(OCc1ccccc1)*
How the values were obtained:
Homo sapiens = species: Homo sapiens; assay: Inhibition of ADP-induced aggregation of human blood platelets in the presence of fibrinogen.; type: functional
[1] = target: Integrin alpha-IIb/beta-3 (Homo sapiens, UniProt P05106+P08514); assay: Inhibition of fibrinogen binding to purified immobilized alpha IIb beta-3 integrin isolated from membranes of human blood platelets.
Integrin alpha-IIb/beta-3, sequence (P05106 27-788 limits assumed): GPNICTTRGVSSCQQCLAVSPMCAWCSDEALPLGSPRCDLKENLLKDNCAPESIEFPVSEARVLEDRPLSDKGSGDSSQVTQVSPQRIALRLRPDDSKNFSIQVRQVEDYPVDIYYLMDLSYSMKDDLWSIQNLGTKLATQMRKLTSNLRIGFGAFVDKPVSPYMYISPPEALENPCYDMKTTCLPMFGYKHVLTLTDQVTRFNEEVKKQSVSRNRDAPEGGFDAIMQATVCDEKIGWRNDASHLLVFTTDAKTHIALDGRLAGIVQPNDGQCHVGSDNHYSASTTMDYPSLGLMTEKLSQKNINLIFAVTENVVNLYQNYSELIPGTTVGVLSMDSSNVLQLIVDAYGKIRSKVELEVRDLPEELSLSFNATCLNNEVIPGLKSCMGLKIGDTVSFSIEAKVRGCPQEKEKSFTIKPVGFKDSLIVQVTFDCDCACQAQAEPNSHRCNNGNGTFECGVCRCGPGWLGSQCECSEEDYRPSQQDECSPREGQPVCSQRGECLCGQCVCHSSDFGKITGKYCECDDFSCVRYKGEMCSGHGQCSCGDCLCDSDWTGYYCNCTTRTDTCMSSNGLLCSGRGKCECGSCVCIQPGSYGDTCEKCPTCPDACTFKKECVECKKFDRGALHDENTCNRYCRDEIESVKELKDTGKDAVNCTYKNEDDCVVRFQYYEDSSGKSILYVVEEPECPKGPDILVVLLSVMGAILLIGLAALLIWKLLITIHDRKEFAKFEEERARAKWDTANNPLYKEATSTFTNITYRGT
Integrin alpha-IIb/beta-3, sequence (P08514 32-887 limits assumed): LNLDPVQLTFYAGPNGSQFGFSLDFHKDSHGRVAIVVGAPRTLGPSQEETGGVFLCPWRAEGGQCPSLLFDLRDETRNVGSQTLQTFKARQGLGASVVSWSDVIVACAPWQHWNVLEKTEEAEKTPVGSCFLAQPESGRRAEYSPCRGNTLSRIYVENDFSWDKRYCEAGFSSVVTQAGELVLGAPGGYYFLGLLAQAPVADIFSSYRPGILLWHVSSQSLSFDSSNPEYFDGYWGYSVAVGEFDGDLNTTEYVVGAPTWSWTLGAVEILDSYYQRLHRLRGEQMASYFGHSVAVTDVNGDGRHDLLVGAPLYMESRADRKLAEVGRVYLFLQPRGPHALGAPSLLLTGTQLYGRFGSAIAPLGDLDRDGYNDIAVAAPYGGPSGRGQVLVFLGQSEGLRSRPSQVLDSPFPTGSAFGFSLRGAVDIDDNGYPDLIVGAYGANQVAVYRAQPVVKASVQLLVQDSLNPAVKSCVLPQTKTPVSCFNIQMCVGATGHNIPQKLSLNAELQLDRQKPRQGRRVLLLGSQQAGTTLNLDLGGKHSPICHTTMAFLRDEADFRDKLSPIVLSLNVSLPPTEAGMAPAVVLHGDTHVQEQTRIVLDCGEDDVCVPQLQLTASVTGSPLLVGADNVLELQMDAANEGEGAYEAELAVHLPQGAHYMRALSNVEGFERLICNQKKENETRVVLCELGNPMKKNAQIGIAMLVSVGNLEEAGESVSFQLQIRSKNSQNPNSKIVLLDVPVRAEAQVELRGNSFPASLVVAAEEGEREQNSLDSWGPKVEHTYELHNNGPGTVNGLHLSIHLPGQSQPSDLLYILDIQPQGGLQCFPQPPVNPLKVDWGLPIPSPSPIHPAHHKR
Integrin alpha-IIb/beta-3, sequence (P08514 891-1039 limits assumed): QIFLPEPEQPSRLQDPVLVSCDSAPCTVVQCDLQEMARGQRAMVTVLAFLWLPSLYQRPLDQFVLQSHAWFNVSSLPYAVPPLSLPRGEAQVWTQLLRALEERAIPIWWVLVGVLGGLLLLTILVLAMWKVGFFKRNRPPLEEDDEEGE

SMILES	IC50 (Homo sapiens) [nM]	IC50 [1] [nM]
COC(=O)[C@H](Cn1ccc2ccccc21)NC(=O)[C@H](CC(=O)O)N1CC[C@H](NC(=O)[C@H](CCCN=C(N)N)NC(=O)OCc2ccccc2)C1=O	25100	1220
N=C(N)NCCC[C@H](NC(=O)OCc1ccccc1)C(=O)N[C@@H]1CCN([C@@H](CC(=O)O)C(=O)N[C@@H](Cc2ccccc2)C(=O)O)C1=O	> 100000	> 100000
COC(=O)[C@H](Cc1ccccc1)NC(=O)[C@H](CC(=O)O)NC(=O)[C@H](C)NC(=O)[C@H](CCCNC(=N)N)NC(=O)OCc1ccccc1	> 100000	78000
CC(C)C[C@H](NC(=O)[C@H](CC(=O)O)N1CC[C@H](NC(=O)[C@H](CCCN=C(N)N)NC(=O)OCc2ccccc2)C1=O)C(=O)O	12800	560
COC(=O)[C@H](Cc1ccccc1)NC(=O)[C@H](CC(=O)O)N1CC[C@H](NC(=O)[C@H](CCCN=C(N)N)NC(=O)OCc2ccccc2)C1=O	85100	770
CC(C)[C@H](NC(=O)[C@@H](CC(=O)O)N1CC[C@H](NC(=O)Cc2ccc(C(=N)N)cc2)C1=O)C(=O)O	> 100000	> 100000
COC(=O)[C@H](Cc1ccccc1)NC(=O)[C@H](CC(=O)O)NC(=O)CNC(=O)[C@H](CCCN=C(N)N)NC(=O)OCc1ccccc1 (Cbz-RGDF-OMe)	13000	270
COC(=O)[C@H](Cc1ccccc1)NC(=O)[C@H](CC(=O)O)NC(=O)[C@@H](C)NC(=O)[C@H](CCCN=C(N)N)NC(=O)OCc1ccccc1	> 100000	> 100000

The next compounds have a lower IC50 (Homo sapiens) than those just listed; values first:

IC50 (Homo sapiens) [nM]	IC50 [1] [nM]	SMILES
3100	110	CC(C)[C@H](NC(=O)[C@H](CC(=O)O)NC(=O)CNC(=O)[C@H](CCCN=C(N)N)NC(=O)OCc1ccccc1)C(=O)O (Cbz-RGDV-OH)
4000	510	COC(=O)[C@H](CC12CC3CC(CC(C3)C1)C2)NC(=O)[C@H](CC(=O)O)N1CC[C@H](NC(=O)[C@H](CCCN=C(N)N)NC(=O)OCc2ccccc2)C1=O
360	20	COC(=O)[C@H](CC12CC3CC(CC(C3)C1)C2)NC(=O)[C@H](CC(=O)O)N1CC[C@H](NC(=O)Cc2ccc(C(=N)N)cc2)C1=O
740	20	N=C(N)c1ccc(CC(=O)N[C@H]2CCN([C@@H](CC(=O)O)C(=O)N[C@@H](Cn3ccc4ccccc43)C(=O)O)C2=O)cc1
40	2	N=C(N)c1ccc(CC(=O)N[C@H]2CCN([C@@H](CC(=O)O)C(=O)N[C@H](C(=O)O)C34CC5CC(CC(C5)C3)C4)C2=O)cc1
10000	1070	N=C(N)NCCC[C@H](NC(=O)OCc1ccccc1)C(=O)N[C@H]1CCN([C@@H](CC(=O)O)C(=O)N[C@@H](Cn2ccc3ccccc32)C(=O)O)C1=O
360	40	CC(C)C[C@H](NC(=O)[C@H](CC(=O)O)N1CC[C@H](NC(=O)Cc2ccc(C(=N)N)cc2)C1=O)C(=O)O
100	5	N=C(N)c1ccc(CC(=O)N[C@H]2CCN([C@@H](CC(=O)O)C(=O)N[C@@H](CC34CC5CC(CC(C5)C3)C4)C(=O)O)C2=O)cc1
4400	120	COC(=O)[C@H](Cn1ccc2ccccc21)NC(=O)[C@H](CC(=O)O)N1CC[C@H](NC(=O)Cc2ccc(C(=N)N)cc2)C1=O

Reference: ChEMBL document CHEMBL1127009, “Fibrinogen receptor antagonists containing a gamma-lactam Gly-Asp isostere” (Bioorg Med Chem Lett, 1993)
